# Measurements taken from patent publication US4560509A, “Antibiotic A39079 factor S-1” (Eli Lilly and Company, priority 1983, dated 1985).
# Positions of bridges follow the written chain, without caps; N, C: chain ends. Non-standard residues stand in square brackets, D forms with d. Residues, ends and D or L forms follow the SMILES beside them. *: point of attachment. Ileψ(thiazoline)Cys = CC[C@H](C)[C@H](N)C1=N[C@H](C(=O)*)CS1; dOrn = NCCC[C@@H](N)C(=O)O
# What was measured:
# Assay type in all cases: cell-based
# [1] = test system: Streptomyces spheroides NRRL 15600; assay: antibiotic sensitivity of the producing culture
# From the text: In classifying the microorganism as a new strain of S. spheroides, the methods recommended by the International Streptomyces Project (ISP) for the characterization of Streptomyces species [E. B. Shirling and D. Gottlieb, "Methods of Characterization of Streptomyces species," Int. J. Syst. Bacteriol. 16(3), 313-340 (1966)] were followed along with certain supplementary tests.
# Escherichia coli = assay: antibiotic activity of column fractions
# Experimental: (§1) Whole broth (100 L), prepared in a manner similar to that of Example 1, Section B, was filtered using a filter aid (Hyflo Supercel, Johns-ManvilleCorp.). The filtered broth (86 L) is adjusted to pH 2 with 5N hydrochloric acid and then is extracted twice with ethyl acetate (1/2 volumes). The ethyl acetate extracts are concentrated under vacuum to give an oily residue (49 g). This residue is dissolved in methanol and placed on a 10-L Diaion HP-20 column (Mitsubishi Industries). The column is washed with water (500 ml) and eluted with acetonitrile:water (30 L of 3:7 and 50 L of 3:2) and acetonitrile (20 L). Elution is carried out at a rate of 100 ml/min., collecting 4-liter fractions. Fractions are tested for antibiotic activity against Micrococcus luteus, Escherichia coli, and Neurospora crassa.
# Neurospora crassa = assay: antibiotic activity of column fractions
# Experimental: as §1
# Serratia marcescens X99 = assay: standard agar-dilution MIC assay; conditions: Serratia marcescens, X99
# From the text: (§2) Table V summarizes the minimal inhibitory concentrations (MIC) at which factor S-1 inhibits certain organisms as determined by standard agar-dilution assays. In Table V, the activity of factor S-1 is compared with that of rifampin.
# [2] = test system: Staphylococcus aureus V41; assay: standard agar-dilution MIC assay; conditions: Staphylococcus aureus, V41
# From the text: as §2
# [3] = test system: Pseudomonas aeruginosa X239; assay: standard agar-dilution MIC assay; conditions: Pseudomonas aeruginosa, X239
# From the text: as §2
# Salmonella typhi X514 = assay: standard agar-dilution MIC assay; conditions: Salmonella enterica
# From the text: as §2
# Proteus morganii PR15 = assay: standard agar-dilution MIC assay; conditions: Morganella morganii, PR15
# From the text: as §2
# Proteus inconstans PR33 = assay: standard agar-dilution MIC assay; conditions: Providencia alcalifaciens, PR33
# From the text: as §2
# Escherichia coli TEM = assay: standard agar-dilution MIC assay
# From the text: as §2
# [4] = test system: Staphylococcus aureus NRRL B313; assay: standard agar-dilution MIC assay; conditions: Staphylococcus aureus, NRRLB313
# From the text: as §2
# Escherichia coli EC14 = assay: standard agar-dilution MIC assay
# From the text: as §2
# [5] = test system: Klebsiella pneumoniae KAE; assay: standard agar-dilution MIC assay; conditions: Klebsiella pneumoniae
# From the text: as §2
# Escherichia coli N10 = assay: standard agar-dilution MIC assay
# From the text: as §2
# [6] = test system: Klebsiella pneumoniae X26; assay: standard agar-dilution MIC assay; conditions: Klebsiella pneumoniae, X26
# From the text: as §2
# [7] = test system: Staphylococcus aureus S13E; assay: standard agar-dilution MIC assay
# From the text: as §2
# [8] = test system: Streptococcus pneumoniae Park 1; assay: standard agar-dilution MIC assay; conditions: Streptococcus pneumoniae, PARK1
# From the text: as §2
# [9] = test system: Enterobacter aerogenes C32; assay: standard agar-dilution MIC assay; conditions: Klebsiella aerogenes, C32
# From the text: as §2
# Proteus rettgeri C24 = assay: standard agar-dilution MIC assay; conditions: Providencia rettgeri, C24
# From the text: as §2
# [10] = test system: Klebsiella pneumoniae X68; assay: standard agar-dilution MIC assay; conditions: Klebsiella pneumoniae, X68
# From the text: as §2
# [11] = test system: Enterobacter cloacae 265A; assay: standard agar-dilution MIC assay; conditions: Enterobacter cloacae, 265A
# From the text: as §2
# Enterobacter cloacae EB5 = assay: standard agar-dilution MIC assay; conditions: Enterobacter cloacae, EB5
# From the text: as §2
# [12] = test system: Pseudomonas aeruginosa Ps18; assay: standard agar-dilution MIC assay
# From the text: as §2
# Serratia marcescens SE3 = assay: standard agar-dilution MIC assay; conditions: Serratia marcescens, SE3
# From the text: as §2
# Salmonella typhi 1335 = assay: standard agar-dilution MIC assay; conditions: Salmonella enterica
# From the text: as §2
# [13] = test system: Pseudomonas aeruginosa X528; assay: standard agar-dilution MIC assay; conditions: Pseudomonas aeruginosa, X528
# From the text: as §2
# [14] = test system: Citrobacter freundii CF17; assay: standard agar-dilution MIC assay; conditions: Citrobacter freundii, CF17
# From the text: as §2
# [15] = test system: Streptococcus faecium ATCC 9790; assay: standard agar-dilution MIC assay; conditions: Enterococcus faecium, ATCC9790
# From the text: as §2
# [16] = test system: Streptococcus pyogenes C203; assay: standard agar-dilution MIC assay
# From the text: as §2
# [17] = test system: Staphylococcus epidermidis EPI1; assay: standard agar-dilution MIC assay
# From the text: as §2
# [18] = test system: Staphylococcus aureus X400; assay: standard agar-dilution MIC assay; conditions: Staphylococcus aureus, X400
# From the text: as §2
# [19] = test system: Staphylococcus epidermidis 222; assay: standard agar-dilution MIC assay; conditions: Staphylococcus epidermidis, 222
# From the text: as §2
# [20] = test system: Enterobacter aerogenes EB17; assay: standard agar-dilution MIC assay; conditions: Klebsiella aerogenes, EB17
# From the text: as §2
# Shigella sonnei N9 = assay: standard agar-dilution MIC assay
# From the text: as §2
# [21] = test system: Streptococcus sp. group D 9960; assay: standard agar-dilution MIC assay; conditions: Streptococcus
# From the text: as §2
molecule,measurement,setting,value
O=C(N[C@H](CO)[C@H](O)c1ccc([N+](=O)[O-])cc1)C(Cl)Cl [Chloramphenicol],resistance / sensitivity of the culture to antibiotic,[1],resistant
same,activity against E. coli,Escherichia coli,active
C[C@@H]1C[C@@H]([C@H](O)CC2CC(=O)NC(=O)C2)C(=O)[C@@H](C)C1 [Cycloheximide],activity against N. crassa,Neurospora crassa,active
"CO[C@H]1/C=C/O[C@@]2(C)Oc3c(C)c(O)c4c(O)c(c(/C=N/N5CCN(C)CC5)c(O)c4c3C2=O)NC(=O)/C(C)=C\C=C\[C@H](C)[C@H](O)[C@@H](C)[C@@H](O)[C@@H](C)[C@H](OC(C)=O)[C@@H]1C [Rifampin, reference compound]",resistance / sensitivity of the culture to antibiotic,[1],resistant
same,MIC,Serratia marcescens X99,32 µg/mL
same,MIC,[2],0.015 µg/mL
same,MIC,[3],16 µg/mL
same,MIC,Salmonella typhi X514,16 µg/mL
same,MIC,Proteus morganii PR15,32 µg/mL
same,MIC,Proteus inconstans PR33,16 µg/mL
same,MIC,Escherichia coli TEM,128 µg/mL
same,MIC,[4],0.03 µg/mL
same,MIC,Escherichia coli EC14,16 µg/mL
same,MIC,[5],32 µg/mL
same,MIC,Escherichia coli N10,16 µg/mL
same,MIC,[6],16 µg/mL
same,MIC,[7],0.03 µg/mL
same,MIC,[8],0.125 µg/mL
same,MIC,[9],32 µg/mL
same,MIC,Proteus rettgeri C24,8 µg/mL
same,MIC,[10],16 µg/mL
same,MIC,[11],32 µg/mL
same,MIC,Enterobacter cloacae EB5,32 µg/mL
same,MIC,[12],> 128 µg/mL
same,MIC,Serratia marcescens SE3,64 µg/mL
same,MIC,Salmonella typhi 1335,16 µg/mL
same,MIC,[13],16 µg/mL
same,MIC,[14],16 µg/mL
same,MIC,[15],2 µg/mL
same,MIC,[16],0.25 µg/mL
same,MIC,[17],0.06 µg/mL
same,MIC,[18],0.06 µg/mL
same,MIC,[19],0.06 µg/mL
same,MIC,[20],32 µg/mL
same,MIC,Shigella sonnei N9,16 µg/mL
same,MIC,[21],2 µg/mL
CC[C@H](C)[C@H](N)C1=N[C@H](C(=O)N[C@@H](CC(C)C)C(=O)N[C@H](CCC(=O)O)C(=O)N[C@H](C(=O)N[C@H]2CCCCNC(=O)[C@H](CC(N)=O)NC(=O)[C@@H](CC(=O)O)NC(=O)[C@H](Cc3cnc[nH]3)NC(=O)[C@@H](Cc3ccccc3)NC(=O)[C@H]([C@@H](C)CC)NC(=O)[C@@H](CCCN)NC2=O)[C@@H](C)CC)CS1 [bacitracin] ({Ileψ(thiazoline)Cys}-L[dE]IK[dOrn]I[dF]H[dD]N; lactam 4-C),resistance / sensitivity of the culture to antibiotic,[1],sensitive
CC(=O)OCC1=C(C(=O)O)N2C(=O)[C@@H](NC(=O)Cc3cccs3)[C@H]2SC1 [cephalothin],resistance / sensitivity of the culture to antibiotic,[1],sensitive
CC[C@H]1OC(=O)[C@H](C)[C@@H](O[C@H]2C[C@@](C)(OC)[C@@H](O)[C@H](C)O2)[C@H](C)[C@@H](O[C@@H]2O[C@H](C)C[C@H](N(C)C)[C@H]2O)[C@](C)(O)C[C@@H](C)C(=O)[C@H](C)[C@@H](O)[C@]1(C)O [erythromycin],resistance / sensitivity of the culture to antibiotic,[1],sensitive
CCC[C@@H]1C[C@@H](C(=O)N[C@@H]([C@H]2O[C@H](SC)[C@H](O)[C@@H](O)[C@H]2O)[C@@H](C)O)N(C)C1 [lincomycin],resistance / sensitivity of the culture to antibiotic,[1],resistant
CCn1cc(C(=O)O)c(=O)c2ccc(C)nc21 [nalidixic acid],resistance / sensitivity of the culture to antibiotic,[1],resistant
NC[C@@H]1O[C@H](O[C@H]2[C@@H](O)[C@H](O[C@@H]3[C@@H](O)[C@H](N)C[C@H](N)[C@H]3O[C@H]3O[C@H](CN)[C@@H](O)[C@H](O)[C@H]3N)O[C@@H]2CO)[C@H](N)[C@@H](O)[C@@H]1O [neomycin],resistance / sensitivity of the culture to antibiotic,[1],sensitive
CO[C@@H]1[C@@H](OC(N)=O)[C@@H](O)[C@H](Oc2ccc3c(O)c(NC(=O)c4ccc(O)c(CC=C(C)C)c4)c(=O)oc3c2C)OC1(C)C [novobiocin],resistance / sensitivity of the culture to antibiotic,[1],sensitive
CC1(C)S[C@@H]2[C@H](NC(=O)Cc3ccccc3)C(=O)N2[C@H]1C(=O)O [penicillin G],resistance / sensitivity of the culture to antibiotic,[1],sensitive
[H]/N=C(/N)N[C@H]1[C@H](O)[C@@H](O)[C@H](O[C@@H]2O[C@@H](C)[C@](O)(C=O)[C@H]2O[C@@H]2O[C@@H](CO)[C@H](O)[C@@H](O)[C@@H]2NC)[C@@H](N/C(N)=N\[H])[C@@H]1O [streptomycin],resistance / sensitivity of the culture to antibiotic,[1],sensitive
Nc1ccc(S(=O)(=O)Nc2ncccn2)cc1 [sulfadiazine],resistance / sensitivity of the culture to antibiotic,[1],sensitive
CN(C)[C@@H]1C(O)=C(C(N)=O)C(=O)[C@@]2(O)C(O)=C3C(=O)c4c(O)cccc4[C@@](C)(O)[C@H]3C[C@@H]12 [tetracycline],resistance / sensitivity of the culture to antibiotic,[1],sensitive
CN[C@H](CC(C)C)C(=O)N[C@H]1C(=O)N[C@@H](CC(N)=O)C(=O)N[C@H]2C(=O)N[C@H]3C(=O)N[C@H](C(=O)N[C@H](C(=O)O)c4cc(O)cc(O)c4-c4cc3ccc4O)[C@H](O)c3ccc(c(Cl)c3)Oc3cc2cc(c3O[C@@H]2O[C@H](CO)[C@@H](O)[C@H](O)[C@H]2O[C@H]2C[C@](C)(N)[C@H](O)[C@H](C)O2)Oc2ccc(cc2Cl)[C@H]1O [vancomycin],resistance / sensitivity of the culture to antibiotic,[1],sensitive
gentamicin,resistance / sensitivity of the culture to antibiotic,[1],sensitive
polymyxin B,resistance / sensitivity of the culture to antibiotic,[1],sensitive
